# Results published in patent US20100285959A1, “HERBICIDAL MIXTURES” (priority 2006, published 2010).
# How the values were obtained:
# velvetleaf (ABUTH) = experiment: Test 17 greenhouse, post- and preemergence; assay type: in vivo, Abutilon theophrasti; details: 12 DAA
# Text: Plants were watered as needed.
# flint corn (ZEAMI) = experiment: Test 12 field trial, preemergence; assay type: in vivo, Zea mays L. ssp. indurata; details: Cpd 2 or Cpd 1 62 g a.i./ha, Diuron 2000 g a.i./ha
# Text: (§1) In early-mid spring season, corn seeds (hybrid ‘Pioneer 3041’) were planted 5 cm deep and sugarcane nodes (variety RB-72.454) were planted 10 cm deep in separate plots in a clay soil having 2.6% organic matter and a pH of 5.6. Plots were 24 m long by 1.5 m wide with rows spaced 80 cm (corn) or 140 cm (sugarcane) apart. Corn seeds were spaced 15 cm apart and sugarcane nodes were spaced 10 cm apart within the rows. At the same time, weed seeds were broadcast over the surface of separate plots without a crop, one weed species per plot. The weed plots were rotary tilled to incorporate the weed seeds to a variety of depths. The field was managed using conventional tillage practices.
# common sugarcane (SACOF) = experiment: Test 12 field trial, preemergence; assay type: in vivo, Saccharum officinarum; details: Cpd 2 or Cpd 1 62 g a.i./ha, Diuron 2000 g a.i./ha
# Text: as §1
# slender amaranth (AMAVI) = experiment: Test 12 field trial, preemergence; assay type: in vivo, Amaranthus viridis; details: Cpd 2 or Cpd 1 62 g a.i./ha, Diuron 2000 g a.i./ha
# Text: as §1
# common blackjack (BIDPI) = experiment: Test 12 field trial, preemergence; assay type: in vivo, Bidens pilosa; details: Cpd 2 or Cpd 1 62 g a.i./ha, Diuron 2000 g a.i./ha
# Text: as §1
# [1] = test system: broadleaf buttonweed (BOILF); experiment: Test 12 field trial, preemergence; assay type: in vivo, Borreria latifolia; details: Cpd 2 or Cpd 1 62 g a.i./ha, Diuron 2000 g a.i./ha
# Text: as §1
# sicklepod (CASOB) = experiment: Test 12 field trial, preemergence; assay type: in vivo, Cassia obtusifolia; details: Cpd 2 or Cpd 1 62 g a.i./ha, Diuron 2000 g a.i./ha
# Text: as §1
# [2] = test system: tropical spiderwort (COMBE); experiment: Test 12 field trial, preemergence; assay type: in vivo, Commelina benghalensis; details: Cpd 2 or Cpd 1 62 g a.i./ha, Diuron 2000 g a.i./ha
# Text: as §1
# [3] = test system: Florida beggarweed (DEDTO); experiment: Test 12 field trial, preemergence; assay type: in vivo, Desmodium tortuosum; details: Cpd 2 or Cpd 1 62 g a.i./ha, Diuron 2000 g a.i./ha
# Text: as §1
# wild poinsettia (EPHHL) = experiment: Test 12 field trial, preemergence; assay type: in vivo, Euphorbia heterophylla; details: Cpd 2 or Cpd 1 62 g a.i./ha, Diuron 2000 g a.i./ha
# Text: as §1
# [4] = test system: Ipomoea grandiflora (IPOGF); experiment: Test 12 field trial, preemergence; assay type: in vivo; details: Cpd 2 or Cpd 1 62 g a.i./ha, Diuron 2000 g a.i./ha
# Text: as §1
# wild spikenard (HPYSU) = experiment: Test 12 field trial, preemergence; assay type: in vivo; details: Cpd 2 or Cpd 1 62 g a.i./ha, Diuron 2000 g a.i./ha
# Text: as §1
# common purslane (POROL) = experiment: Test 12 field trial, preemergence; assay type: in vivo, Portulaca oleracea; details: Cpd 2 or Cpd 1 62 g a.i./ha, Diuron 2000 g a.i./ha
# Text: as §1
# arrowleaf sida (SIDRH) = experiment: Test 12 field trial, preemergence; assay type: in vivo, Sida rhombifolia; details: Cpd 2 or Cpd 1 62 g a.i./ha, Diuron 2000 g a.i./ha
# Text: as §1
# [5] = test system: Italian cocklebur (XANSI); experiment: Test 12 field trial, preemergence; assay type: in vivo, Xanthium strumarium ssp. italicum; details: Cpd 2 or Cpd 1 62 g a.i./ha, Diuron 2000 g a.i./ha
# Text: as §1
# wheat (TRZAW) = experiment: Test 30 growth chamber, postemergence; assay type: in vivo, Triticum aestivum
# Procedure: (§2) A growth chamber test was conducted to evaluate the effects on the plant species wheat (TRZAW, Triticum aestivum L.) and barley (HORVX, Hordeum vulgare L.) with mixtures of Compound 1 and Compound 2 with glycerol. Wheat and barley seeds were planted in a sandy loam soil having 0.9% organic matter and a pH of 6.3. […] Wheat and barley plants were treated postemergence at the two leaf growth stage for Compound 1 and at the three leaf growth stage for Compound 2. Each treatment was replicated one time. […] Plants were watered as needed. […] Colby's Equation was used to determine herbicidal effects expected from the mixtures.
# barley (HORVX) = experiment: Test 30 growth chamber, postemergence; assay type: in vivo, Hordeum vulgare
# Procedure: as §2
# [6] = 17 DAA, Glycerol 7100 g a.i./ha
# [7] = 17 DAA, Glycerol 14200 g a.i./ha
# [8] = 18 DAA, Glycerol 7100 g a.i./ha
# [9] = 18 DAA, Glycerol 14200 g a.i./ha
compound,measurement,setting,value
Cc1nn(-c2cc(CC(Cl)C(=O)O)c(Cl)cc2F)c(=O)n1C(F)F (stereo not shown) [Carfentrazone],"Obs response, scale 0 to 100","velvetleaf (ABUTH); Postemergence, 7.5 g a.i./ha",70
same,"Obs response, scale 0 to 100","velvetleaf (ABUTH); Postemergence, 15 g a.i./ha",79
same,"Obs response, scale 0 to 100","velvetleaf (ABUTH); Postemergence, 30 g a.i./ha",82
same,"Obs response, scale 0 to 100","velvetleaf (ABUTH); Preemergence, 7.5 g a.i./ha",4
same,"Obs response, scale 0 to 100","velvetleaf (ABUTH); Preemergence, 15 g a.i./ha",8
same,"Obs response, scale 0 to 100","velvetleaf (ABUTH); Preemergence, 30 g a.i./ha",8
CN(C)C(=O)Nc1ccc(Cl)c(Cl)c1 [Diuron],ZEAMI Obs,flint corn (ZEAMI); 15 DAA,20%
same,ZEAMI Obs,flint corn (ZEAMI); 29 DAA,20%
same,ZEAMI Obs,flint corn (ZEAMI); 48 DAA,20%
same,ZEAMI Obs,flint corn (ZEAMI); 61 DAA,25%
same,SACOF Obs,common sugarcane (SACOF); 15 DAA,0
same,SACOF Obs,common sugarcane (SACOF); 29 DAA,0
same,SACOF Obs,common sugarcane (SACOF); 48 DAA,0
same,SACOF Obs,common sugarcane (SACOF); 61 DAA,5
same,AMAVI Obs,slender amaranth (AMAVI); 15 DAA,100
same,AMAVI Obs,slender amaranth (AMAVI); 29 DAA,100
same,AMAVI Obs,slender amaranth (AMAVI); 48 DAA,100
same,AMAVI Obs,slender amaranth (AMAVI); 61 DAA,100
same,BIDPI Obs,common blackjack (BIDPI); 15 DAA,100
same,BIDPI Obs,common blackjack (BIDPI); 29 DAA,100
same,BIDPI Obs,common blackjack (BIDPI); 48 DAA,100
same,BIDPI Obs,common blackjack (BIDPI); 61 DAA,100
same,BOILF Obs,[1]; 15 DAA,99
same,BOILF Obs,[1]; 29 DAA,100
same,BOILF Obs,[1]; 48 DAA,100
same,BOILF Obs,[1]; 61 DAA,95
same,CASOB Obs,sicklepod (CASOB); 15 DAA,90
same,CASOB Obs,sicklepod (CASOB); 29 DAA,90
same,CASOB Obs,sicklepod (CASOB); 48 DAA,60
same,CASOB Obs,sicklepod (CASOB); 61 DAA,40
same,COMBE Obs,[2]; 15 DAA,99
same,COMBE Obs,[2]; 29 DAA,100
same,COMBE Obs,[2]; 48 DAA,100
same,COMBE Obs,[2]; 61 DAA,100
same,DEDTO Obs,[3]; 15 DAA,100
same,DEDTO Obs,[3]; 29 DAA,100
same,DEDTO Obs,[3]; 48 DAA,100
same,DEDTO Obs,[3]; 61 DAA,95
same,EPHHL Obs,wild poinsettia (EPHHL); 15 DAA,60
same,EPHHL Obs,wild poinsettia (EPHHL); 29 DAA,40
same,EPHHL Obs,wild poinsettia (EPHHL); 48 DAA,20
same,EPHHL Obs,wild poinsettia (EPHHL); 61 DAA,40
same,IPOGF Obs,[4]; 15 DAA,80
same,IPOGF Obs,[4]; 29 DAA,80
same,IPOGF Obs,[4]; 48 DAA,40
same,IPOGF Obs,[4]; 61 DAA,40
same,HPYSU Obs,wild spikenard (HPYSU); 15 DAA,75
same,HPYSU Obs,wild spikenard (HPYSU); 29 DAA,60
same,HPYSU Obs,wild spikenard (HPYSU); 48 DAA,40
same,HPYSU Obs,wild spikenard (HPYSU); 61 DAA,20
same,POROL Obs,common purslane (POROL); 15 DAA,100
same,POROL Obs,common purslane (POROL); 29 DAA,100
same,POROL Obs,common purslane (POROL); 48 DAA,100
same,POROL Obs,common purslane (POROL); 61 DAA,100
same,SIDRH Obs,arrowleaf sida (SIDRH); 15 DAA,100
same,SIDRH Obs,arrowleaf sida (SIDRH); 29 DAA,100
same,SIDRH Obs,arrowleaf sida (SIDRH); 48 DAA,100
same,SIDRH Obs,arrowleaf sida (SIDRH); 61 DAA,100
same,XANSI Obs,[5]; 15 DAA,60
same,XANSI Obs,[5]; 29 DAA,40
same,XANSI Obs,[5]; 48 DAA,40
same,XANSI Obs,[5]; 61 DAA,40
OCC(O)CO [Glycerol],TRZAW Obs,wheat (TRZAW); [6],0%
same,TRZAW Obs,wheat (TRZAW); [7],0%
same,TRZAW Obs,wheat (TRZAW); [8],0%
same,TRZAW Obs,wheat (TRZAW); [9],0%
same,HORVX Obs,barley (HORVX); [6],0%
same,HORVX Obs,barley (HORVX); [7],0%
same,HORVX Obs,barley (HORVX); [8],0%
same,HORVX Obs,barley (HORVX); [9],0%
